Data: paper PMC8359193, “Summary of reference chemicals evaluated by the fish short‐term reproduction assay, OECD TG229, using Japanese Medaka, Oryzias latipes” (Journal of Applied Toxicology, 2021)
Entries after “also recorded” stand apart in the source; their conditions may differ. Like-named read-outs stand apart in the source and are kept apart here.

Columns and labels:
medaka ARβ (mARβ) [1] = biological target: T1, medaka ARβ (mARβ) (Oryzias latipes, UniProt D1MV73); assay: Medaka ARβ reporter gene assay (RGA), antagonist assay with 50 nM 11KT, HepG2 cells; type: cell-based, Japanese medaka (Oryzias latipes); details: mARβ RGA antagonist assay, 50 nM 11KT-induced activity; ND = no significant response even at the highest assay concentration (in parentheses)
T1 sequence (D1MV73 entry or part of it): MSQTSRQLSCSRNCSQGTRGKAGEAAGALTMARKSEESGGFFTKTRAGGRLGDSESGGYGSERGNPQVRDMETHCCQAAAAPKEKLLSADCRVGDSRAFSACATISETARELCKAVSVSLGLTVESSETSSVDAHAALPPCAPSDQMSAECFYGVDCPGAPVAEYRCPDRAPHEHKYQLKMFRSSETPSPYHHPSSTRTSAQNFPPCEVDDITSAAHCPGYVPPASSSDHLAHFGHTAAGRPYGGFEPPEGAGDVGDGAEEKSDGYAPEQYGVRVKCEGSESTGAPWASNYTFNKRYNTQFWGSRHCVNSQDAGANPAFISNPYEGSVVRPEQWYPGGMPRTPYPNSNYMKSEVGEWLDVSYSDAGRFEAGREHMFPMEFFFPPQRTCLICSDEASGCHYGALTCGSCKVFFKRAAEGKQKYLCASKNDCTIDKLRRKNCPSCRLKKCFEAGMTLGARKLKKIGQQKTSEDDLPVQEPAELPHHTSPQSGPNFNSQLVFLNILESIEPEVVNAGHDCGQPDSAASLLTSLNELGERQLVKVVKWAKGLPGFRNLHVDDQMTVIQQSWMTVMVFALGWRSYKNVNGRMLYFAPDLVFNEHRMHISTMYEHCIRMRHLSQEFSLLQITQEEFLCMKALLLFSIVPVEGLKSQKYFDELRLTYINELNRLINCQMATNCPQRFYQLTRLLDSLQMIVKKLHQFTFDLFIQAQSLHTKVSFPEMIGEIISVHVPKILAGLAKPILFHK
Procedure: (§1) To support interpretation of the biological effects observed in the FSTRA studies, in vitro RGAs using medaka Esr1 (mEsr1) and medaka ARβ (mARβ) were performed for the 16 test chemicals. In the present study, Esr1 and ARβ, which are ancestral subtypes among Esrs and ARs in Japanese medaka, were selected based on the phylogenetical analyses of Esr and AR with each receptor RGAs (Ogino et al., [2016], [2018]; Tohyama et al., [2015]).
The mARβ RGA in which the agonist and the antagonist assays were performed as same as the mEsr1 RGA was carried out according to the methods previously reported by Lange et al. ([2015]). For the assays, human liver cancer cell line, HepG2, was used as the host cells, and mARβ/pcDNA3.1, MMTV‐Luc, and pRL‐TK‐Rlu were used as mARβ expression vector, reporter vector, and internal control vector, respectively. Other materials and methods, for example, operating procedure, reagents, and incubation conditions, were almost the same as the mEsr1 RGA previously described beside that 11KT (Sigma‐Aldrich, purity 99.0%), a main AR ligand in fish, was competitively spiked at 50 nM into the test medium with test chemicals in antagonist assay. In the agonist and the antagonist assays, 11KT and 2‐hydroxyflutamide (2HFLT; Sigma‐Aldrich, purity 98.5%) were used as positive controls, respectively.
(§2) Effect concentrations, that is, EC50 (a half maximal effective concentration) in the agonist assay and IC50 (a half maximal inhibitory concentration) in the antagonist assay, were estimated by nonlinear curve fitting (e.g., three parameters logistic regression curve) using GraphPad Prism (GraphPad Software Inc., La Jolla, CA, USA).

Japanese medaka [2] = details: cited from earlier work
medaka Esr1 (mEsr1) = biological target: T2, medaka Esr1 (mEsr1) (Oryzias latipes, UniProt P50241); assay: Medaka Esr1 reporter gene assay (RGA), antagonist assay with 1 nM E2, HEK293 cells; type: cell-based, Japanese medaka (Oryzias latipes)
T2 construct: expressed in transfected cells; host or cells: HEK293 (human embryonic kidney cells), transient transfection with FuGENE HD
T2 sequence (P50241 1-620): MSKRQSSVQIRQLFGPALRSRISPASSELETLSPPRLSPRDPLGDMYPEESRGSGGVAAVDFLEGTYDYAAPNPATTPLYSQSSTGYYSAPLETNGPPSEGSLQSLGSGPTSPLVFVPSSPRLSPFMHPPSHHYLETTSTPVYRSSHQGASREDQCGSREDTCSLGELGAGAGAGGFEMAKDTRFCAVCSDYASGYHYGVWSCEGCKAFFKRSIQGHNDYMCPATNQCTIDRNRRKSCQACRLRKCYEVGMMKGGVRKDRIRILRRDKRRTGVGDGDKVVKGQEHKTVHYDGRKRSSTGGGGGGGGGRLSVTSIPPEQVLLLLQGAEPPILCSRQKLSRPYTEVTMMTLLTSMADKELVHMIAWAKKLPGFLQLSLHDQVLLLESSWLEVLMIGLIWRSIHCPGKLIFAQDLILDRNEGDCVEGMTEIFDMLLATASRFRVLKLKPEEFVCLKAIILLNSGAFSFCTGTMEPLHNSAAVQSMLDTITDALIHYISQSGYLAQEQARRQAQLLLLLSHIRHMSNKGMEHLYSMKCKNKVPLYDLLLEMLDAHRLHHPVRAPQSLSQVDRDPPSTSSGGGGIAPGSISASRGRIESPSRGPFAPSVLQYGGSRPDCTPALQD
Procedure: as §1
The mEsr1 RGA consisting of agonist and antagonist assays were performed according to the methods previously reported (Katsu et al., [2010]; Lange et al., [2012]; Miyagawa et al., [2014]). Briefly, human embryonic kidney cells 293 (HEK293), precultured, were seeded in 96‐well plates at 15,000 cells/well with 200 μl of culture medium, phenol‐red‐free Dulbecco's Modified Eagle's medium (ThermoFisher Scientific K.K., Tokyo, Japan) supplemented with 2‐mM L‐glutamine and 10% charcoal/dextran‐treated fetal bovine serum (Hyclone, UT, USA), and then incubated for 24 h in 5% CO2 at 37°C. After the 24‐h incubation, 20 μl of test medium containing 40 ng of medaka Esr1/pcDNA3.1, 80 ng of ERE‐TK‐Luc, and 20 ng of pRL‐TK‐Rlu and 1.2 μL of transfection reagent FuGENE HD (Promega, WI, USA) were added into each well. The assay plates were incubated for another 4 h in order to transfect the three vectors into the HEK293 cells. After the vectors were successfully transfected, in agonist assay, 24 μl of concentrated test chemical solution was applied to the test medium in the plate wells. […] After chemical treatment for 40 h, luciferase activity of the cells was measured, and the promoter activity was calculated as firefly (Photinus pyralis)‐/sea pansy (Renilla reniformis)‐luciferase activity in each well. The luciferase activities were quantified by a chemiluminescence assay with Dual‐Luciferase Reporter Assay System (Promega) in accordance with the manufacturer's instructions, and luminescence intensity of firefly and sea pansy luciferin was measured using a luminometer, TriStar LB941 (Berthold Technology, Oak Ridge, TN, USA).
as §2

medaka ARβ (mARβ) [3] = biological target: T1, medaka ARβ (mARβ); assay: Medaka ARβ reporter gene assay (RGA), agonist assay, HepG2 cells; type: cell-based, Japanese medaka (Oryzias latipes); details: for EC50: mARβ RGA agonist assay, ND = no significant response even at the highest assay concentration (in parentheses)
Procedure: To support interpretation of the biological effects observed in the FSTRA studies, in vitro RGAs using medaka Esr1 (mEsr1) and medaka ARβ (mARβ) were performed for the 16 test chemicals.
For the assays, human liver cancer cell line, HepG2, was used as the host cells, and mARβ/pcDNA3.1, MMTV‐Luc, and pRL‐TK‐Rlu were used as mARβ expression vector, reporter vector, and internal control vector, respectively.
as §2

[4] = P4 concentration in test solutions with and without UV irradiation (biodegradation check); type: physicochemical
Japanese medaka [5] = details: cited from earlier work; remark: listed apart in the source
[6] = mEsr1 RGA antagonist assay, 1 nM E2-mediated transactivation, ND = no significant response even at the highest assay concentration (in parentheses), read-out: Antagonist assay, IC50, Medaka Esr1
[7] = F0 generation, FLCT, ref Seki et al. (2003)

**Q.** With C#C[C@]1(O)CC[C@H]2[C@@H]3CCc4cc(O)ccc4[C@H]3CC[C@@]21C [EE2, 17α‐Ethynylestradiol] as the compound, how does the IC50 (medaka ARβ (mARβ) [1]) read?
**A.** 0.14 µM

**Q.** And the “concentration that significantly elevated male VTG and reduced fertility” value (Japanese medaka [2]; F0 generation, FLCT, ref MOE, 2006)?
**A.** 9.26 pg/mL

**Q.** Which IC50 (medaka Esr1 (mEsr1)) does the source give for CC(=O)N1CCN(c2ccc(OCC3COC(Cn4ccnc4)(c4ccc(Cl)cc4Cl)O3)cc2)CC1 (stereo not shown) [KCZ, Ketoconazole] here?
**A.** > 10 µM

**Q.** With C#C[C@]1(O)CC[C@H]2[C@@H]3CCC4=CC(=O)CC[C@@H]4[C@H]3CC[C@@]21CC [LNG, Levonorgestrel] as the compound, how does the IC50 (medaka Esr1 (mEsr1)) read?
**A.** > 100 µM

**Q.** And the “mARβ agonist activity (in words)” value (medaka ARβ (mARβ) [3])?
**A.** potent AR agonists

**Q.** What does the source list for C[C@]12CCC(=O)C=C1CC[C@@H]1[C@@H]2CC[C@@]2(C)[C@H]1CC[C@]2(C)O [MT, 17α‐methyltestosterone]?
**A.** IC50 (medaka Esr1 (mEsr1); [6]): > 10 µM; EC50 (medaka ARβ (mARβ) [3]): 0.00012 µM; concentration causing induction of SSC in females and reduction of reproduction (Japanese medaka [2]; long-term testing, ref Seki et al., 2004): 9.98 pg/mL

**Q.** With CC(=O)[C@H]1CC[C@H]2[C@@H]3CCC4=CC(=O)CC[C@]4(C)[C@H]3CC[C@]12C [P4, Progesterone] as the compound, how does the IC50 (medaka Esr1 (mEsr1)) read?
**A.** > 10 µM

**Q.** And the “mARβ agonist activity (in words)” value (medaka ARβ (mARβ) [3])?
**A.** potent AR agonists

**Q.** And the “P4 concentration, % of the nominal” value ([4]; test solution after 24-h UV treatment)?
**A.** more than 80 % of the nominal

**Q.** What about the “P4 concentration, % of the nominal” value ([4]; test solution without UV treatment) of the same compound?
**A.** less than 20 % of the nominal

**Q.** With CCC(C)(C)c1ccc(O)cc1 [PTH, 4‐tert‐Pentylphenol] as the compound, how does the “LOEC on VTG induction” value (Japanese medaka [2]; [7]) read?
**A.** ≤ 51.1 µg/L

**Q.** What about the “LOEC on reproductive impairment” value (Japanese medaka [2]; [7]) of the same compound?
**A.** 224 µg/L

**Q.** Which “mEsr1 antagonist activity (in words)” value (medaka Esr1 (mEsr1); 1 nM E2-mediated mEsr1 transactivation) does the source give for CCCCCCCCCCCCOS(=O)(=O)[O-].[Na+] [SDS, Sodium dodecyl sulfate] here?
**A.** no Esr inhibiting activity; also recorded: neithEsr agonistic nor antagonistic activity

**Q.** What about the IC50 (medaka Esr1 (mEsr1); [6]) of the same compound?
**A.** > 100 µM

**Q.** What about the “mARβ agonist activity (in words)” value (medaka ARβ (mARβ) [3]) of the same compound?
**A.** no significant increase in hold activation; also recorded: neithEsr agonistic nor antagonistic activity

**Q.** What about the EC50 (medaka ARβ (mARβ) [3]) of the same compound?
**A.** > 100 µM

**Q.** And the IC50 (medaka ARβ (mARβ) [1])?
**A.** > 100 µM

**Q.** For C[C@]12C=CC3=C4CCC(=O)C=C4CC[C@H]3[C@@H]1CC[C@@H]2O [TRB, 17β‐Trenbolone], which IC50 (medaka Esr1 (mEsr1)) is on record?
**A.** > 10 µM

**Q.** What about the “concentration causing reduction of reproduction” value (Japanese medaka [5]; in vivo) of the same compound?
**A.** 13 pg/mL

**Q.** What about the “concentration causing induction of SSC in females” value (Japanese medaka [5]; long-term testing, ref Flynn et al., 2017) of the same compound?
**A.** 32 ng/L
